US20020094522A1, “Means and methods for monitoring non-nucleoside reverse transcriptase inhibitor antiretroviral therapy and guiding therapeutic decisions in the treatment of HIV/AIDS” (priority 2000, published 2002)

Legend:
[1] = system: RTV-1058 Clone 4 (K103N and Y188L); experiment: Phenotypic susceptibility assay, RTV-1058 clone 4; type: cell-based, HIV-1
Procedure: (§1) The resistance test vectors containing a functional luciferase gene cassette were constructed and host cells were transfected with the resistance test vector DNA. The resistant test vectors contained patient-derived reverse transcriptase and protease sequences that were either susceptible or resistant to the antiretroviral agents, such as nucleoside reverse transcriptase inhibitors, non-nucleoside reverse transcriptase inhibitors and protease inhibitors. […] The IC50 values were determined by plotting percent drug inhibition vs. log10 drug concentration.
(§2) Host cells were seeded in 10-cm-diameter dishes and were transfected several days after plating with resistance test vector plasmid DNA and the envelope expression vector. […] HIV capsid protein (p24) levels in the harvested cell culture media were determined by an EIA method as described by the manufacturer (SIAC; Frederick, Md.). […] The inhibitory effect of the drug was determined using the following equation: […]
A resistance test vector was constructed as described in Example 1 from a patient sample designated 98-1058. […] An IC50 was determined for the resistance test vector pool for each drug tested.

[2] = system: RTV-302 (patient sample 97-302; K103N, P225H); experiment: Phenotypic susceptibility assay, RTV-302; type: cell-based, HIV-1; conditions: RTV-302, patient-derived
Procedure: (§3) Transfections were performed using a calcium-phosphate precipitation procedure. […] Cell lysates were assayed for luciferase activity (FIG. 3).
(§4) The drug inhibition curves are shown in (FIG. 3).
A resistance test vector was constructed as described in example 1 from a patient sample designated as 97-302. This patient had been treated with d4T, indinavir and DMP-266 for a period of approximately 10 months. Isolation of viral RNA and RT/PCR was used to generate a patient derived segment that comprised viral sequences coding for all of PR and aa 1-313 of RT. The patient derived segment was inserted into a indicator gene viral vector to generate a resistance test vector designated RTV-302. RTV-302 was tested using a phenotypic susceptibility assay to determine accurately and quantitatively the level of susceptibility to a panel of anti-retroviral drugs. […] An IC50 was determined for each drug tested. Susceptibility of the patient virus to each drug was examined and compared to known patterns of susceptibility.

[3] = system: RTV-675 (patient sample 98-675); experiment: Phenotypic susceptibility assay, RTV-675; type: cell-based, HIV-1; conditions: RTV-675, patient-derived pool
Procedure: as §3, §4
A resistance test vector was constructed as described in Example 1 from a patient sample designated 98-675. This patient had been previously treated with ddI, AZT, and 3TC (NRTIs), and saquinavir and nelfinavir (PRIs). Isolation of viral RNA and RT/PCR was used to generate a patient derived segment that comprised viral sequences coding for all of PR and aa 1-313 of RT. The PDS was inserted into an indicator gene viral vector to generate a resistance test vector designated RTV-675. RTV-675 was then tested in a phenotypic assay to determine accurately and quantitatively the level of susceptibility to a panel of anti-retroviral drugs. […] The pattern of susceptibility to all of the drugs tested was examined and compared to known patterns of susceptibility.

[4] = system: Y181C-RTV (HIV reverse transcriptase Y181C); experiment: Phenotypic susceptibility assay, Y181C-RTV; type: cell-based, HIV-1
Description: as §1, with “inhibitors. The resistance test vector viral particles produced by transfecting the resistance test vector DNA into host cells, either in the presence or absence of protease inhibitors, were used to infect target host cells grown either in the absence of NRTI or NNRTI or in the presence of increasing concentrations of the drug.” for “inhibitors.”
as §2

[5] = system: Y188H-RTV (HIV reverse transcriptase Y188H)
Description: The resistance test vectors containing a functional luciferase gene cassette were constructed and host cells were transfected with the resistance test vector DNA. The resistant test vectors contained patient-derived reverse transcriptase and protease sequences that were either susceptible or resistant to the antiretroviral agents, such as nucleoside reverse transcriptase inhibitors, non-nucleoside reverse transcriptase inhibitors and protease inhibitors. The resistance test vector viral particles produced by transfecting the resistance test vector DNA into host cells, either in the presence or absence of protease inhibitors, were used to infect target host cells grown either in the absence of NRTI or NNRTI or in the presence of increasing concentrations of the drug. The amount of luciferase activity produced in infected target host cells in the presence of drug was compared to the amount of luciferase produced in infected target host cells in the absence of drug. Drug resistance was measured as the amount of drug required to inhibit by 50% the luciferase activity detected in the absence of drug (inhibitory concentration 50%, IC50). The IC50 values were determined by plotting percent drug inhibition vs. log10 drug concentration.
Host cells were seeded in 10-cm-diameter dishes and were transfected several days after plating with resistance test vector plasmid DNA and the envelope expression vector. Transfections were performed using a calcium-phosphate precipitation procedure. The cell culture media containing the DNA precipitate was replaced with fresh medium, from one to 24 hours, after transfection. Cell culture media containing resistance test vector viral particles was harvested one to four days after transfection and was passed through a […] filter before being stored at −80° C. HIV capsid protein (p24) levels in the harvested cell culture media were determined by an EIA method as described by the manufacturer (SIAC; Frederick, Md.). Before infection, target cells (293 and 293/T) were plated in cell culture media. Control infections were performed using cell culture media from mock transfections (no DNA) or transfections containing the resistance test vector plasmid DNA without the envelope expression plasmid. One to three or more days after infection the media was removed and cell lysis buffer (Promega) was added to each well. […] The inhibitory effect of the drug was determined using the following equation: […]
where RLUluc [drug] is the relative light unit of luciferase activity in infected cells in the presence of drug and RLUluc is the Relative Light Unit of luciferase activity in infected cells in the absence of drug. IC50 values were obtained from the sigmoidal curves that were generated from the data by plotting the percent inhibition of luciferase activity vs. the log10 drug concentration.

[6] = system: L100I-K103N-RTV; experiment: Phenotypic susceptibility assay, L100I-K103N-RTV; type: cell-based, HIV-1; conditions: site directed mutant
Procedure: as §1, §2
(§5) The mutations Y188L, L100I and K103N were introduced alone and in combinationn into resistance test vectors using the mega-primer method for site-directed mutagenesis (Sakar and Sommar, Ibid.). […] We determined the pattern of phenotypic susceptibility to the NNRTIs, delavirdine, nevlrapine and efavirenz, in all 6 vectors.

[7] = system: Tyr181Cys (Y181C) mutation variant; conditions: Y181C variant selected during nevirapine monotherapy; cited from earlier work
[8] = system: K103N-Y188L-RTV; experiment: Phenotypic susceptibility assay, K103N-Y188L-RTV; type: cell-based, HIV-1; conditions: site directed mutant
Procedure: as §1, §2, §5

[9] = system: L100I-K103N-Y188L-RTV; experiment: Phenotypic susceptibility assay, L100I-K103N-Y188L-RTV; type: cell-based, HIV-1; conditions: site directed mutant
Procedure: as §1, §2, §5

SMILES	fold loss of susceptibility (IC50) [1]	change in susceptibility [2]	fold decrease in susceptibility (IC50) [3]	fold loss of susceptibility compared to wild type control RTV ([4]; Y181C-RTV, site directed mutant)	fold loss of susceptibility compared to wild type control RTV ([4]; {})	fold loss of susceptibility compared to wild type control RTV [5]	fold loss of susceptibility compared to wild type control RTV [6]	reduction in sensitivity [7]	fold loss of susceptibility compared to wild type control RTV [8]	fold loss of susceptibility compared to wild type control RTV [9]
CC(C)Nc1cccnc1N1CCN(C(=O)c2cc3cc(NS(C)(=O)=O)ccc3[nH]2)CC1 [delavirdine]	85 fold	modest decrease in delavirdine susceptibility	2.1 fold							
O=C1Nc2ccc(Cl)cc2[C@@](C#CC2CC2)(C(F)(F)F)O1 [efavirenz]				4 fold	3 fold					
Cc1ccnc2c1NC(=O)c1cccnc1N2C1CC1 [nevirapine]	greater than 800 fold	significant decrease in nevirapine susceptibility	6 fold			3.5 fold	70 fold	100 fold	greater than 800 fold	greater than 800 fold
